System: wound site
Assay: Hydroxyproline (OHP) content of subcutaneous PVA sponges fed by mini-osmotic pump at a dorsal skin incision, index of wound reparative collagen accumulation
Type: in vivo, rats
Conditions: for OHP (collagen synthesis): day 14 post-wounding, mean±SEM
Experimental: (§1) Twenty-eight (28) male adult rats were obtained from a commercial breeder. Rats were housed individually in stainless steel cages at a constant temperature (25°±1° C.) and relative humidity (40-50%). The cages were kept in a room with a twelve-hour light-twelve-hour dark cycle. All animals were allowed at least one week of acclimatization to the laboratory conditions prior to use in the experiments. During this time, they were fed a standard laboratory chow and drank tap water ad libitum.
After the period of acclimatization, the rats were randomly placed into four groups, seven rats per group. Under pentobarbital anesthesia, their backs were shaved and scrubbed with an organic iodine solution and a dorsal skin incision was made. Subcutaneously at the skin incision, a mini-osmotic pump (model 2002, 0.5 μl/hr, Alzet Co.) attached to a polyvinyl alcohol sponge was inserted. Pumps were filled either with PBS or various solutions of arginine in PBS as indicated on Table 1. The rats tolerated the procedure well and recovered uneventfully.
The 1M solution delivers 2 mg/animal/day into the sponge. On the fourteenth day post-wounding, rats were sacrificed with an overdose of pentobarbital. The pelt containing the healing scar was excised. The PVA sponges were removed, carefully cleared of surrounding tissue and frozen at −20° C. for subsequent determination of hydroxyproline content as an index of wound reparative collagen accumulation using the method of Woessner. See J. Woessner, Determination of Hydroxproline in Tissue and Protein Samples Containing Small Proportions of this Amino Acid, Biochem. Biophys., Vol.93, p. 440 (1961).
as §1, with “Twenty (20)” for “Twenty-eight (28)”, “As in Experimental Example 1, rats” for “Rats”, “twelve hour light-twelve hour” for “twelve-hour light-twelve-hour”
After the period of acclimatization, the rats were randomly placed into two groups of ten rats. Under pentobarbital anesthesia, the rats' backs were shaved and scrubbed with an organic iodine solution and a dorsal skin incision was made. As in Experimental Example 1, a mini-osmotic pump (model 2002, 0.5 μl/hr, Alzet Co.) attached to a polyvinyl alcohol sponge was inserted subcutaneously at the incision site. Pumps were filled either with PBS or a solution of 1M arginine in PBS as indicated on Table 3. The rats tolerated the procedure well and recovered uneventfully.
as §1, with “Twenty-one (21)” for “Twenty-eight (28)”, “As in Example Experiments 1 and 2, rats” for “Rats”, “twelve hour light-twelve hour” for “twelve-hour light-twelve-hour”
After the period of acclimatization, the rats were randomly placed into two groups, eight (8) rats were placed into Group 1 and treated with PBS only and thirteen (13) rats were placed into Group 2 and treated with 1M omithine in PBS. Under pentobarbital anesthesia, the rats' backs were shave and scrubbed with an organic iodine solution and a dorsal skin incision was made. Subcutaneously at the skin incision, a mini-osmotic pump (model 2002, 0.5 μl/hr, Alzet Co.) attached to a polyvinyl alcohol sponge was inserted. The mini-osmotic pumps were filled either with PBS or a solution of 1M omithine in PBS as indicated on Table 5 below. The rats tolerated the procedure well and recovered uneventfully. […]

SMILES | increase in collagen biosynthesis accumulation compared to the PBS (control) group (Experimental Example 1, arginine 0.01M) [%] | OHP (collagen synthesis) (Experimental Example 1, arginine 0.01 M in PBS by mini-osmotic pump, PBS control 569 ± 27) [μg/100 mg sponge] | increase in collagen biosynthesis accumulation compared to the PBS (control) group (Experimental Example 1, arginine 0.1M) [%] | OHP (collagen synthesis) (Experimental Example 1, arginine 0.1 M in PBS by mini-osmotic pump, PBS control 569 ± 27) [μg/100 mg sponge] | increase in collagen biosynthesis accumulation compared to the PBS (control) group (Experimental Example 1, arginine 1M) | OHP (collagen synthesis) (Experimental Example 1, arginine 1 M in PBS by mini-osmotic pump (2 mg/animal/day), PBS control 569 ± 27) [μg/100 mg sponge] | increase in collagen biosynthesis accumulation compared to the PBS (control) group (Experimental Example 2, arginine 1M) | OHP (collagen synthesis) (Experimental Example 2, arginine 1 M in PBS by mini-osmotic pump (2 mg/animal/day), PBS control 574 ± 43) [μg/100 mg sponge] | increase in collagen biosynthesis accumulation compared to the PBS (control) group (Experimental Example 3, ornithine 1M) | OHP (collagen synthesis) (Experimental Example 3, ornithine 1 M in PBS by mini-osmotic pump, PBS control 588 ± 45) [μg/100 mg sponge]
N=C(N)NCCC[C@H](N)C(=O)O [Arginine, arginine] | ≥ 10 | 633 ± 54 | ≥ 10 | 698 ± 74 | over 60% | 928 ± 55 | over 30% | 797 ± 48 |  | 
NCCC[C@H](N)C(=O)O [Ornithine, ornithine] |  |  |  |  |  |  |  |  | over 45% | 854 ± 71
